pIC50: −log10 of the molar value. Counter-ions that a name gives are not always drawn.
What was measured:
HCT116 [1] = assay: viability inhibition vs untreated; higher = more cytotoxic; settings: 72 h
HCT116 [2] = settings: 72 h
Protocol: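 HCT116 control and MTA1-KO (CRISPR) HCT116 cells were seeded in 384-well plates (800 cells/well), treated 16 h later with 237 metabolism-related anticancer drugs at five doses (10 uM, 2 uM, 400 nM, 80 nM, 16 nM) for 72 h, two replicates; viability by CCK8. Values are % inhibition of viability relative to untreated cells, plus fitted IC50.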

Structure (SMILES)	viability inhibition (HCT116 [1]; genotype: MTA1-KO, 16 nM)	viability inhibition (HCT116 [1]; genotype: MTA1-KO, 80 nM)	viability inhibition (HCT116 [1]; genotype: MTA1-KO, 400 nM)	viability inhibition (HCT116 [1]; genotype: MTA1-KO, 2000 nM)	viability inhibition (HCT116 [1]; genotype: MTA1-KO, 10000 nM)	viability inhibition (HCT116 [1]; genotype: control, 16 nM)	viability inhibition (HCT116 [1]; genotype: control, 80 nM)	viability inhibition (HCT116 [1]; genotype: control, 400 nM)	viability inhibition (HCT116 [1]; genotype: control, 2000 nM)	viability inhibition (HCT116 [1]; genotype: control, 10000 nM)	pIC50 (HCT116 [2]; genotype: MTA1-KO)	pIC50 (HCT116 [2]; genotype: control)
Cc1ccc(-c2cn3c4c(sc3n2)CCCC4)cc1 [Pifithrin-β hydrobromide]	-6.36%	-17.5%	-18.2%	-13.4%	33%	-6.38%	-10.8%	-7.66%	2.45%	-13.6%	< 5.00	< 5.00
COC(=O)N1CCN(Cc2cccc(NC(=O)Nc3ccc(C)nc3)c2F)CC1 [Omecamtiv mecarbil]	-10%	-12.1%	-17.5%	-17.9%	8.94%	8.94%	4.13%	-7.43%	1.24%	5.67%	< 5.00	< 5.00
NCC(=O)Nc1ccc(-n2nc(C(F)(F)F)cc2-c2ccc3c(ccc4ccccc43)c2)cc1	-0.655%	3.58%	10.6%	45.3%	77%	8.04%	10.5%	9.27%	67%	74.1%	5.59	5.82
COc1ccc2[nH]c([S@@+]([O-])Cc3ncc(C)c(OC)c3C)nc2c1 [Esomeprazole Sodium]	3.92%	2.7%	7.98%	6.88%	10.1%	27%	8.16%	-3.32%	4.21%	12%	< 5.00	< 5.00
NCCCCN=C(N)N [Agmatine sulfate salt]	-2.78%	3.53%	1.54%	7.76%	55.4%	11.2%	9.12%	22.6%	28.6%	22.5%	5.05	< 5.00
OCc1ccc(-c2nn(Cc3ccccc3)c3ccccc23)o1 [Lificiguat]	-2.39%	4.47%	8.63%	37.6%	92.2%	0.501%	5.33%	-0.629%	22.8%	100%	5.57	5.62
CNc1cc(-c2cccc(Cl)c2Cl)nc(N)n1 [TH287 hydrochloride]	18.9%	15.8%	23%	65.5%	94.7%	4.08%	10.5%	1.79%	63.9%	87.3%	5.80	5.72
N#Cc1ccnc(N2C(=O)CC[C@H]2C(=O)N(c2cncc(F)c2)[C@H](C(=O)NC2CC(F)(F)C2)c2ccccc2Cl)c1 [Ivosidenib]	3.53%	-8.17%	-0.782%	12.7%	61.7%	-4.33%	-18.7%	-4.67%	-16.1%	-2.68%	5.23	< 5.00
O=C1c2cccc(O)c2C(=O)c2c(O)cccc21 [Antrapurol]	7.43%	-5.62%	-8.24%	-0.432%	0.85%	1.11%	-7.37%	-11.3%	-10.5%	29.6%	< 5.00	< 5.00
NCc1ccc(S(N)(=O)=O)cc1 [Mafenide hydrochloride]	-13%	-12.9%	-16.5%	-13.4%	-15.9%	-4.74%	6.87%	-2.33%	-2.58%	-6.77%	< 5.00	< 5.00
CN(C)C(=N)N=C(N)N [Metformin hydrochloride]	-20.9%	-15.7%	-16.8%	-16.1%	-14.1%	-3.73%	-8.51%	4.88%	7.24%	3.98%	< 5.00	< 5.00
COc1ccc(-c2ccc3c(N4CCOCC4)nc(N4C[C@@H](C)O[C@@H](C)C4)nc3n2)cc1CO	14.6%	18.1%	36.5%	68.5%	82.3%	13.2%	20.4%	21.5%	59.4%	72.9%	6.12	5.65
CO[C@H]1C[C@@H]2CC[C@@H](C)[C@@](O)(O2)C(=O)C(=O)N2CCCC[C@H]2C(=O)O[C@H]([C@H](C)C[C@@H]2CC[C@H](n3cnnn3)[C@H](OC)C2)CC(=O)[C@H](C)/C=C(\C)[C@@H](O)[C@@H](OC)C(=O)[C@H](C)C[C@H](C)/C=C/C=C/C=C/1C [Zotarolimus]	5.1%	-1.86%	2.56%	34.7%	69.3%	-4.9%	-11.3%	-9.38%	-17.6%	9.36%	5.68	< 5.00
COc1ccc2[nH]cc(CCNC(C)=O)c2c1 [Melatonine]	11.6%	12.1%	6.76%	7.43%	8.55%	10.2%	9.39%	9.78%	24.1%	14.5%	< 5.00	< 5.00
O=C([O-])C(Cl)Cl.[Na+] [Sodium Dichloroacetate]	-5.96%	-6.01%	-16.4%	-11.2%	11.1%	-15.2%	-8.93%	-10.2%	-22.3%	-2.12%	< 5.00	< 5.00
O=C(Cc1ccccc1)Nc1nnc(CCSCCc2nnc(NC(=O)Cc3ccccc3)s2)s1 [BPTES]	-12.8%	-12.2%	0.728%	8.71%	41.5%	-3.88%	-3.14%	-1.6%	-0.809%	-19.2%	< 5.00	< 5.00
CN1CCN(C(=O)COc2ccc(C34CC5CC(CC(C5)C3)C4)cc2)CC1	0.53%	0.971%	2.4%	3.12%	55.4%	-2.5%	-2.81%	-1.07%	-8.95%	7.86%	5.03	< 5.00
CC[C@H](C)C(=O)O[C@H]1C[C@@H](C)C=C2C=C[C@H](C)[C@H](CC[C@@H]3C[C@@H](O)CC(=O)O3)[C@H]21 [Lovastatin]	-10.2%	-12.6%	-7.31%	-11.7%	-8.01%	2.13%	-3.28%	8.89%	5.64%	29.4%	< 5.00	< 5.00
Cn1cc(C[C@@H](N)C(=O)O)c2ccccc21 [Indoximod]	-22.6%	-22%	-24.2%	-19%	3.49%	-15.9%	-19.5%	-14.6%	-4.79%	3.27%	< 5.00	< 5.00
CCC(C)(C)C(=O)O[C@H]1C[C@@H](C)C=C2C=C[C@H](C)[C@H](CC[C@@H]3C[C@@H](O)CC(=O)O3)[C@H]21 [Simvastatin]	–	–	–	–	–	–	–	–	–	–	< 5.00	< 5.00

Reference: the supplement of paper PMC10477900
